# Biological target: T1, ePL-tagged GSPT1 (Homo sapiens, UniProt P15170+Q96SW2)
# T1 construct: expressed in transfected cells; host or cells: DF15 multiple myeloma cells
# Assay: GSPT1 DiscoverX Degradation Assay
# Format: cell-based
# Details: DF15 multiple myeloma cells expressing ePL-tagged GSPT1; twenty hours; minimum of percent of control curve (Ataluren control Y constant=0, DMSO control = Y max)
# Protocol: GSPT1 DiscoverX Degradation Assay.
# Compounds were dispensed by an acoustic dispenser (ATS Acoustic Transfer System from EDC Biosystems) into a 384-well in a 10 pt dose response curve using 3 fold dilutions starting at 10 uM and going down to 0.0005 uM in DMSO. A DMSO control is added to the assay. […] Assay plates were incubated at 37° C. with 5% CO2 for twenty hours. After incubation, 25 μl of the InCELL Hunter™ Detection Reagent Working Solution (DiscoverX, cat #96-0002, Fremont, CA) was added to each well and incubated at room temperature for 30 minutes protected from light. After 30 minutes, luminescence was read on a PHERAstar luminometer (Cary, NC).
# The minimum Y is reference to the Y constant. In the GSPT1 degradation assay, we use Ataluren® (luciferase inhibitor) as the control with a Y constant=0. The maximum limit is the Y max DMSO control. All percent of control GSPT1 degradation curves were processed and evaluated using Activity Base (IDBS).
# T1 sequence (P15170 whole entry): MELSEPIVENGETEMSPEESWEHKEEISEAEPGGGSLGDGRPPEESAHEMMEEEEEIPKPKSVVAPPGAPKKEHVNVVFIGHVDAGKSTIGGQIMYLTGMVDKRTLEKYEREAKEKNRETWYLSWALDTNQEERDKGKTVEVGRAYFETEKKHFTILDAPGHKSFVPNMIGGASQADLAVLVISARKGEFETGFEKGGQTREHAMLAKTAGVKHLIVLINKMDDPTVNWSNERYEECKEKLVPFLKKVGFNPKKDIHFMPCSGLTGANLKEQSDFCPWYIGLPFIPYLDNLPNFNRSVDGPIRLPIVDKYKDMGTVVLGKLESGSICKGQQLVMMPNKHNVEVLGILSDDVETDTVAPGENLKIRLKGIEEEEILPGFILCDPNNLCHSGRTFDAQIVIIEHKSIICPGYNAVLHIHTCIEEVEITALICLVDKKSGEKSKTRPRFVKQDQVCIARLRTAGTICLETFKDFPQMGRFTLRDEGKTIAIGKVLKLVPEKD
# T1 sequence (Q96SW2 whole entry): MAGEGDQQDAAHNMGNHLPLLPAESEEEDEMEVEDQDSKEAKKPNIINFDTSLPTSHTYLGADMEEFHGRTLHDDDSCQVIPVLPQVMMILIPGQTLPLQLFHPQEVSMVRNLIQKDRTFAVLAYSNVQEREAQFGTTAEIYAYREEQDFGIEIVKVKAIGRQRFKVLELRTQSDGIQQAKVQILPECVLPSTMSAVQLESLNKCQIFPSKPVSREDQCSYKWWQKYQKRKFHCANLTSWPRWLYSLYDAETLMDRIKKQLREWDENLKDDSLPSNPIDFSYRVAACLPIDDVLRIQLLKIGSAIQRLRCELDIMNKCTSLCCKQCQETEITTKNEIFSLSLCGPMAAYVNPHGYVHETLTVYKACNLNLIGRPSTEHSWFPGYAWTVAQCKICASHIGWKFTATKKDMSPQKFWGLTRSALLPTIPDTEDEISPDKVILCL
# T1 sequence (Q16531 whole entry partner): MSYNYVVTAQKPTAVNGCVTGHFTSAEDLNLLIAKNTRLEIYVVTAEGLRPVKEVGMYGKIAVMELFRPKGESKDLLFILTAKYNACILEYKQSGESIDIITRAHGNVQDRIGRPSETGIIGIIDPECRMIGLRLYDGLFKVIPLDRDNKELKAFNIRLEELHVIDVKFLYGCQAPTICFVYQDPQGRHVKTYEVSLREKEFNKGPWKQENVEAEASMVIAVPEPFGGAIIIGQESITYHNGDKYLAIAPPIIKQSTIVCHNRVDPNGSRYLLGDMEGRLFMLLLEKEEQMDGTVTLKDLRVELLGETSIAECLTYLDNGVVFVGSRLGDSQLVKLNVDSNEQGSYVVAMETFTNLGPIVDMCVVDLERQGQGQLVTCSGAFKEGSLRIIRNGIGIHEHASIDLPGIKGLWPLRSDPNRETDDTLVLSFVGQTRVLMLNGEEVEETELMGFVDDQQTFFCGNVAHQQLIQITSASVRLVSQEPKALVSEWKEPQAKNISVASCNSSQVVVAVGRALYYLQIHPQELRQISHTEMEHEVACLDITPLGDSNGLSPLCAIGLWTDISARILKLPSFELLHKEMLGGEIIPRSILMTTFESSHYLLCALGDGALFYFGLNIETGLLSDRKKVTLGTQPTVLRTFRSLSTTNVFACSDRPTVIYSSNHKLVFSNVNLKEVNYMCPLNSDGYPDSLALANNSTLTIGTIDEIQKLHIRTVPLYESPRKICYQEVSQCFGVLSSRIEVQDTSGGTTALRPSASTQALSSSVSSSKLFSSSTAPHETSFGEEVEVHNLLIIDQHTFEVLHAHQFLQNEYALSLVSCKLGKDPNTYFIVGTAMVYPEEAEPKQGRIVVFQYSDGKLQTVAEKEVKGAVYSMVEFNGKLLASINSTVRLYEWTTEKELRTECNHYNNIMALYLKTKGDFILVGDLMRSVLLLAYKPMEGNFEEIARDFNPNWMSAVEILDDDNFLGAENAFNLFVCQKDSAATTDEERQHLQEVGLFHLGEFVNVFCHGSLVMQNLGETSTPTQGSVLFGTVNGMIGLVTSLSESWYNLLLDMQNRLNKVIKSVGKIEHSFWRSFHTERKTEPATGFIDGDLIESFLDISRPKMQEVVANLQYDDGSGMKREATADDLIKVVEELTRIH
row,SMILES,GSPT1 Degradation Ymin
1,"CCCc1cc(CN)ccc1COc1ccc(NC(=O)NCc2ccc3c(c2)CN(C2CCC(=O)NC2=O)C3=O)cc1 (stereo not drawn) [Example 22, 1-(4-{[4-(aminomethyl)-2-n-propylphenyl]methoxy}phenyl)-3-{[2-(2,6-dioxopiperidin-3-yl)-1-oxo-2,3-dihydro-1H-isoindol-5-yl]methyl}urea]",9.46
2,"NCc1ccc(COc2ccc(NC(=O)NCc3ccc4c(c3)CN(C3CCC(=O)NC3=O)C4=O)cc2F)cc1 (stereo not drawn) [Example 18, 1-(4-{[4-(aminomethyl)phenyl]methoxy}-3-fluorophenyl)-3-{[2-(2,6-dioxopiperidin-3-yl)-1-oxo-2,3-dihydro-1H-isoindol-5-yl]methyl}urea]",54.45
3,"O=C1CCC(N2Cc3cc(CNC(=O)Nc4ccc(OCc5ccccc5)cc4)ccc3C2=O)C(=O)N1 (stereo not drawn) [Example 6, 1-[4-(benzyloxy)phenyl]-3-{[2-(2,6-dioxopiperidin-3-yl)-1-oxo-2,3-dihydro-1H-isoindol-5-yl]methyl}urea]",3.00
4,"CCc1cc(CN)ccc1COc1ccc(NC(=O)NCc2ccc3c(c2)CN(C2CCC(=O)NC2=O)C3=O)cc1 (stereo not drawn) [Example 21, 1-(4-{[4-(aminomethyl)-2-ethylphenyl]methoxy}phenyl)-3-{[2-(2,6-dioxopiperidin-3-yl)-1-oxo-2,3-dihydro-1H-isoindol-5-yl]methyl}urea]",10.44
5,"NCc1ccc(COc2ccc(NC(=O)NCc3ccc4c(c3)CN(C3CCC(=O)NC3=O)C4=O)cc2)c(Cl)c1 (stereo not drawn) [Example 25, 1-(4-{[4-(aminomethyl)-2-chlorophenyl]methoxy}phenyl)-3-{[2-(2,6-dioxopiperidin-3-yl)-1-oxo-2,3-dihydro-1H-isoindol-5-yl]methyl}urea]",5.50
6,"CC(C)Oc1cc(CN)ccc1COc1ccc(NC(=O)NCc2ccc3c(c2)CN(C2CCC(=O)NC2=O)C3=O)cc1 (stereo not drawn) [Example 24, 1-(4-{[4-(aminomethyl)-2-(propan-2-yloxy)phenyl]methoxy}phenyl)-3-{[2-(2,6-dioxopiperidin-3-yl)-1-oxo-2,3-dihydro-1H-isoindol-5-yl]methyl}urea]",10.04
7,"NCc1ccc(COc2ccc(NC(=O)NCc3ccc4c(c3)CN(C3CCC(=O)NC3=O)C4=O)cc2)cn1 (stereo not drawn) [Example 14, 1-(4-{[6-(aminomethyl)pyridin-3-yl]methoxy}phenyl)-3-{[2-(2,6-dioxopiperidin-3-yl)-1-oxo-2,3-dihydro-1H-isoindol-5-yl]methyl}urea]",5.83
8,"C[C@@]1(N2Cc3cc(CNC(=O)Nc4ccc(OCc5ccc(CN)cc5)cc4)ccc3C2=O)CCC(=O)NC1=O [Example 33, 1-(4-{[4-(aminomethyl)phenyl]methoxy}phenyl)-3-({2-[(3R)-3-methyl-2,6-dioxopiperidin-3-yl]-1-oxo-2,3-dihydro-1H-isoindol-5-yl}methyl)urea]",60.95
9,"NC[C@H]1CC[C@H](COc2ccc(NC(=O)NCc3ccc4c(c3)CN(C3CCC(=O)NC3=O)C4=O)cc2)CC1 (stereo partly drawn) [Example 34, 3-{[2-(2,6-dioxopiperidin-3-yl)-1-oxo-2,3-dihydro-1H-isoindol-5-yl]methyl}-1-(4-{[(1r,4r)-4-(aminomethyl)cyclohexyl]methoxy}phenyl)urea]",7.47
10,"NCc1ccc(COc2ccc(NC(=O)NCc3ccc4c(c3)CN(C3CCC(=O)NC3=O)C4=O)cc2)c(F)c1 (stereo not drawn) [Example 11, 1-(4-{[4-(aminomethyl)-2-fluorophenyl]methoxy}phenyl)-3-{[2-(2,6-dioxopiperidin-3-yl)-1-oxo-2,3-dihydro-1H-isoindol-5-yl]methyl}urea]",6.71
11,"Cc1cc(CN)ccc1COc1ccc(NC(=O)NCc2ccc3c(c2)CN(C2CCC(=O)NC2=O)C3=O)cc1 (stereo not drawn) [Example 12, 1-(4-{[4-(aminomethyl)-2-methylphenyl]methoxy}phenyl)-3-{[2-(2,6-dioxopiperidin-3-yl)-1-oxo-2,3-dihydro-1H-isoindol-5-yl]methyl}urea]",5.39
12,"CC(C)c1cc(CN)ccc1COc1ccc(NC(=O)NCc2ccc3c(c2)CN(C2CCC(=O)NC2=O)C3=O)cc1 (stereo not drawn) [Example 30, 1-(4-{[4-(aminomethyl)-2-i-propylphenyl]methoxy}phenyl)-3-{[2-(2,6-dioxopiperidin-3-yl)-1-oxo-2,3-dihydro-1H-isoindol-5-yl]methyl}urea]",10.86
13,"O=C1CCC(N2Cc3cc(CNC(=O)Nc4ccc(OCc5ccccc5O)cc4)ccc3C2=O)C(=O)N1 (stereo not drawn) [Example 10, 1-((2-(2,6-dioxopiperidin-3-yl)-1-oxoisoindolin-5-yl)methyl)-3-(4-((2-hydroxybenzyl)oxy)phenyl)urea]",4.00
14,"O=C1CCC(N2Cc3cc(CNC(=O)Nc4ccc(OCc5cccc(CO)c5)cc4)ccc3C2=O)C(=O)N1 (stereo not drawn) [Example 7, 1-((2-(2,6-dioxopiperidin-3-yl)-1-oxoisoindolin-5-yl)methyl)-3-(4-((3-(hydroxymethyl)benzyl)oxy)phenyl)urea]",4.00
15,"NCc1ccc(COc2ccc(NC(=O)NCc3ccc4c(c3)CN(C3CCC(=O)NC3=O)C4=O)cc2)nc1 (stereo not drawn) [Example 13, 1-(4-{[5-(aminomethyl)pyridin-2-yl]methoxy}phenyl)-3-{[2-(2,6-dioxopiperidin-3-yl)-1-oxo-2,3-dihydro-1H-isoindol-5-yl]methyl}urea]",6.75
16,"C[C@]1(N2Cc3cc(CNC(=O)Nc4ccc(OCc5ccc(CN)cc5)cc4)ccc3C2=O)CCC(=O)NC1=O [Example 32, 1-(4-{[4-(aminomethyl)phenyl]methoxy}phenyl)-3-({2-[(3S)-3-methyl-2,6-dioxopiperidin-3-yl]-1-oxo-2,3-dihydro-1H-isoindol-5-yl}methyl)urea]",22.76
17,"NCc1ccc(CO[C@H]2CC[C@H](NC(=O)NCc3ccc4c(c3)CN(C3CCC(=O)NC3=O)C4=O)CC2)cc1 (stereo partly drawn) [Example 35, 3-{[2-(2,6-dioxopiperidin-3-yl)-1-oxo-2,3-dihydro-1H-isoindol-5-yl]methyl}-1-[(1r,4r)-4-{[4-(aminomethyl)phenyl]methoxy}cyclohexyl]urea]",17.59
18,"COc1cc(CN)ccc1COc1ccc(NC(=O)NCc2ccc3c(c2)CN(C2CCC(=O)NC2=O)C3=O)cc1 (stereo not drawn) [Example 23, 1-(4-{[4-(aminomethyl)-2-methoxyphenyl]methoxy}phenyl)-3-{[2-(2,6-dioxopiperidin-3-yl)-1-oxo-2,3-dihydro-1H-isoindol-5-yl]methyl}urea]",8.85
19,"NCc1ccc(COc2ccc(NC(=O)NCc3ccc4c(c3)CN(C3CCC(=O)NC3=O)C4=O)cc2)c(OC(F)F)c1 (stereo not drawn) [Example 31, 1-(4-{[4-(aminomethyl)-2-diflouromethoxyphenyl]methoxy}phenyl)-3-{[2-(2,6-dioxopiperidin-3-yl)-1-oxo-2,3-dihydro-1H-isoindol-5-yl]methyl}urea]",7.07
20,"O=C1CCC(N2Cc3cc(CNC(=O)Nc4ccc(OCc5ccccc5CO)cc4)ccc3C2=O)C(=O)N1 (stereo not drawn) [Example 8, 1-((2-(2,6-dioxopiperidin-3-yl)-1-oxoisoindolin-5-yl)methyl)-3-(4-((2-(hydroxymethyl)benzyl)oxy)phenyl)urea]",4.00
21,"O=C1CCC(N2Cc3cc(CNC(=O)Nc4ccc(OCc5ccc(CO)cc5)cc4)ccc3C2=O)C(=O)N1 (stereo not drawn) [Example 1, 1-((2-(2,6-dioxopiperidin-3-yl)-1-oxoisoindolin-5-yl)methyl)-3-(4-((4-(hydroxymethyl)benzyl)oxy)phenyl)urea]",3.00
22,"NCc1ccc(COc2ccc(NC(=O)NCc3ccc4c(c3)CN(C3CCC(=O)NC3=O)C4=O)cc2)nn1 (stereo not drawn) [Example 16, 1-(4-{[6-(aminomethyl)pyridazin-3-yl]methoxy}phenyl)-3-{[2-(2,6-dioxopiperidin-3-yl)-1-oxo-2,3-dihydro-1H-isoindol-5-yl]methyl}urea]",12.67
23,"NCc1cnc(COc2ccc(NC(=O)NCc3ccc4c(c3)CN(C3CCC(=O)NC3=O)C4=O)cc2)nc1 (stereo not drawn) [Example 15, 1-(4-{[5-(aminomethyl)pyrimidin-2-yl]methoxy}phenyl)-3-{[2-(2,6-dioxopiperidin-3-yl)-1-oxo-2,3-dihydro-1H-isoindol-5-yl]methyl}urea]",3.10
24,"NCc1ccccc1COc1ccc(NC(=O)NCc2ccc3c(c2)CN(C2CCC(=O)NC2=O)C3=O)cc1 (stereo not drawn) [Example 3, 1-(4-((2-(aminomethyl)benzyl)oxy)phenyl)-3-((2-(2,6-dioxopiperidin-3-yl)-1-oxoisoindolin-5-yl)methyl)urea]",7.30
25,"Nc1ccccc1COc1ccc(NC(=O)NCc2ccc3c(c2)CN(C2CCC(=O)NC2=O)C3=O)cc1 (stereo not drawn) [Example 28, 1-(4-((2-aminobenzyl)oxy)phenyl)-3-((2-(2,6-dioxopiperidin-3-yl)-1-oxoisoindolin-5-yl)methyl)urea]",10.20
26,"Nc1cccc(COc2ccc(NC(=O)NCc3ccc4c(c3)CN(C3CCC(=O)NC3=O)C4=O)cc2)c1 (stereo not drawn) [Example 5, 1-(4-((3-aminobenzyl)oxy)phenyl)-3-((2-(2,6-dioxopiperidin-3-yl)-1-oxoisoindolin-5-yl)methyl)urea]",3.00
27,"Cc1cc(NC(=O)NCc2ccc3c(c2)CN(C2CCC(=O)NC2=O)C3=O)ccc1OCc1ccc(CN)cc1 (stereo not drawn) [Example 17, 1-(4-{[4-(aminomethyl)phenyl]methoxy}-3-methylphenyl)-3-{[2-(2,6-dioxopiperidin-3-yl)-1-oxo-2,3-dihydro-1H-isoindol-5-yl]methyl}urea]",15.91

# Source: patent US12187699B2, “GSPT1 compounds and methods of use of the novel compounds” (BRISTOL-MYERS SQUIBB COMPANY, priority 2022, dated 2025)
